Data from patent US20120020876A1, “HEDGEHOG PATHWAY INHIBITORS” (priority 2009, published 2012).
Entries after “also recorded” stand apart in the source; their conditions may differ.

How the values were obtained:
Assay type in all cases: in vivo, mouse
[1] = system: Gli1; experiment: Gli1 expression in KPC tumors by quantitative real-time PCR; details: 40 mg/kg Compound A oral, treated for 4 days, vs control
Procedure: (§1) KPC mice harboring pancreatic tumors were treated with 40 mg/kg of Compound A by oral gavage, either singly, once daily for four days or at as part of a survival study. […] Six hours following the final dose, tissue samples were harvested, snap frozen in liquid nitrogen and stored at −80° C. Mice with abdominal ascites were excluded from analysis. Samples were analyzed by LC/MS, as described below.
RNA was isolated from tissues using the RNeasy kit (Qiagen). cDNA was synthesized from 1-2 ug of RNA using the AffinityScript QPCR cDNA Synthesis Kit (Stratagene). cDNA was analyzed by quantitative real-time PCR on a 7900HT Real-Time PCR system using relative quantification (ΔΔct) with the taqman gene expression assays (Applied Biosystems) (Table 7). Experiment was performed on 5 KPC tumors and 7 syngeneic tumors derived from K8484 or K8675 cells.

[2] = Compound A concentration in tissues by LC/MS; details: KPC mice; oral administration 40 mg/kg; 6 h after final dose
Procedure: as §1
Calibration standard stock solutions were prepared by dissolving Compound A at a concentration of 2.5 mg/mL in DMSO. Internal standard stock solution was prepared by dissolving deuterated Compound A (Compound A-d^3) in DMSO for a final concentration of 2.5 mg/mL. Stock solutions were stored in aliquots at −80° C. until further use. […]
Tumor samples were homogenized in 4 volumes of ACN:PBS buffer. […] Compound A concentrations for all tissues were preferentially determined using the 1:1 dilution unless any of the replicates for a given tissue required the higher dilution of 1/100 for accurate quantitation.
Compound A concentrations in the samples were determined from the calibration curves generated in homogenization buffer. […]
The data were acquired and processed using the software Analyst 1.4.1 (Applied Biosystems, Foster City, Calif.). For the standard curve samples, peak area ratios of Compound A to internal standard […] were calculated and plotted against the theoretical concentrations. […]

[3] = system: KPC tumor blood vessels; experiment: Vessel patency: lectin perfusion with CD31 staining in KPC tumors; details: KPC mice treated 10 days; vs untreated or gemcitabine tumors
Procedure: To assess the functional vasculature, biotin-conjugated Lycopersicon esculentum lectin (B1175-1 mg, Vector Laboratories) was resuspended in 425 μL PBS and mixed with 75 μL of 1 mg/mL Streptavidin-AlexaFluor 633 (S21375, Molecular Probes) (in sterile PBS). Prior to use, the lectin-avidin mixture was centrifuged 14,000 k on a microfuge for 10 minutes to remove any particulate. Fifteen minutes prior to euthanasia, 100 μl (0.4 mg total) of the conjugated lectin was administered as a slow intravenous infusion over 5 minutes, and the hemodynamics monitored closely to ensure that it was tolerated. For doxorubicin experiments, five minutes prior to euthanasia mice were also infused with a 20 mg/kg doxorubicin solution (D-1515.10 mg, in sterile saline, Sigma) over one minute.
While under terminal anesthesia, mice were perfused with 4% paraformaldehyde in PBS, pH 7.4. Perfused tissues were harvested, fixed overnight in 4% paraformaldehyde in PBS, pH 7.4 and transferred to 70% ethanol. Tissues were embedded in paraffin, sectioned, rehydrated, and counterstained with DAPI. The lectin labeling experiments were reproduced independently in a second laboratory (SRH, KI).
Mice were infused with 30 ml of 4% PFA pH 7.4 using a Harvard Apparatus PhD 2000 syringe pump at a rate of […]. […] Doxorubicin fluorescence was excited with a 488 nm laser, and emission was detected in a range from 520-620 nm. […]

CC1=C2C[C@H]3[C@@H](CC[C@@H]4C[C@H](NS(C)(=O)=O)CC[C@@]43C)[C@@H]2CC[C@@]2(C1)O[C@@H]1C[C@H](C)CN[C@H]1[C@H]2C.Cl [Compound A]
Gli1 expression [1]: significant decrease; also recorded: significantly lower | accumulation of drug in PDA tissues [2]: measurable accumulation of drug in PDA tissues | vessel patency (percent of CD31 positive vessels perfused with lectin) [3]: increased vessel patency
